From patent US20250170267A1, “ANTIBODY-DRUG CONJUGATE PRECURSOR AND INTERMEDIATE FOR SYNTHESIS THEREOF” (UBE Corporation, priority 2022, published 2025) come the findings set out here.

For the test, the target named is T1, human topoisomerase I (Homo sapiens, UniProt P11387).
T1 construct: purchased Sigma T9069
T1 sequence (P11387 1-765): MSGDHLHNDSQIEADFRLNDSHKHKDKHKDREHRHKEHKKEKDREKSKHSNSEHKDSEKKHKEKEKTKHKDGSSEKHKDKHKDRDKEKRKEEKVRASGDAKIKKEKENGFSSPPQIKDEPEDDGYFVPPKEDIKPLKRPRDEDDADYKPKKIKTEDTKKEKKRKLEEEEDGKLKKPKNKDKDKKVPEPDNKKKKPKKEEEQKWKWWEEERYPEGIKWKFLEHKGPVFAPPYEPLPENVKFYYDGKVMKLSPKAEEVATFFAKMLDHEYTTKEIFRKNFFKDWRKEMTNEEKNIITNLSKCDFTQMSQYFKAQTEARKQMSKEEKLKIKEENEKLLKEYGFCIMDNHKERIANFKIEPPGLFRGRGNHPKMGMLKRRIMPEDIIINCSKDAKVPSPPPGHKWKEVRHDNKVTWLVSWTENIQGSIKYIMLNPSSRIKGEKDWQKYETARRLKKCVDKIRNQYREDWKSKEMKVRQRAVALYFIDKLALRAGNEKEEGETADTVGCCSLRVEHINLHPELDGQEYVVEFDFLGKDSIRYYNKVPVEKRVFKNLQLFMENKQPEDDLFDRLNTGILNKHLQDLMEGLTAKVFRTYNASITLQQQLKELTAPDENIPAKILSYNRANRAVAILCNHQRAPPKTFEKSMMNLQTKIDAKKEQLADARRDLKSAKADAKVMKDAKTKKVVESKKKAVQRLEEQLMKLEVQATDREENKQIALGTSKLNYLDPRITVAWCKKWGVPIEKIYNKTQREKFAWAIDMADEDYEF
The test can be described thus: Topoisomerase I activity inhibition test. In kind it is biochemical. To be noted: supercoiled plasmid DNA, 37° C., 60 minutes. The procedure: For measuring topoisomerase I activity inhibitory actions, Human DNA Topoisomerase I Assay Kit (manufactured by ProFoldin, HRA100K) was used. A human topoisomerase I (manufactured by Sigma, T9069) was added to a Tris-HCl buffer containing KCl, DTT, MgCl2, EDTA, and BSA to prepare a reaction solution. The reaction solution (35.2 μL) and a test compound solution (4.4 μL) prepared by an aqueous solution containing 10% DMSO were mixed in a 1.5 mL microtube, and the resulting mixture was reacted at 37° C. for 10 minutes. Subsequently, a supercoiled plasmid DNA (4.4 μL) was added thereto, and the resulting mixture was reacted at 37° C. for 60 minutes. After the reaction, the solution was added to a 96 well plate (manufactured by Corning Inc., 3904) at 40 μL/well, and a Dye H19 solution (250 μL) diluted 10 times with the buffer included with the kit was added thereto. A microplate reader (Infinite F500, manufactured by TECAN) was used to measure the fluorescence intensity (excitation wavelength: 485 nm, detection wavelength: 535 nm) of each well.
The topoisomerase I activity inhibition rate (%) was calculated by the following equation.

`CC[C@@]1(O)C(=O)OCc2c1cc1n(c2=O)Cc2c-1nc1cc(F)c(C)c3c1c2[C@@H](NC(C)=O)CC3` [Example U-001] had an IC50 of no more than 15 µM. Take `CC[C@@]1(O)C(=O)OCc2c1cc1n(c2=O)Cc2c-1nc1cc(F)c(C)c3c1c2[C@@H](NC(=O)CCO)CC3` [Example U-002]: the IC50 is no more than 15 µM. Compound `CC[C@@]1(O)C(=O)OCc2c1cc1n(c2=O)Cc2c-1nc1cc(F)c(C)c3c1c2[C@@H](NC(=O)CNC)CC3` [Example U-003] returned an IC50 of no more than 15 µM.

`CC[C@@]1(O)C(=O)OCc2c1cc1n(c2=O)Cc2c-1nc1cc(F)c(C)c3c1c2[C@@H](NC(=O)c1cccc(N)c1)CC3` [Example U-004] registered an IC50 of no more than 15 µM. Then `CC[C@@]1(O)C(=O)OCc2c1cc1n(c2=O)Cc2c-1nc1cc(F)c(C)c3c1c2[C@@H](NC(=O)c1ccc(N)cc1)CC3` [Example U-005], with no more than 15 µM. Then `CC[C@@]1(O)C(=O)OCc2c1cc1n(c2=O)Cc2c-1nc1cc(F)c(C)c3c1c2[C@@H](NC(=O)Cc1cccc(N)c1)CC3` [Example U-006], with no more than 15 µM; and `CC[C@@]1(O)C(=O)OCc2c1cc1n(c2=O)Cc2c-1nc1cc(F)c(C)c3c1c2[C@@H](NC(=O)Cc1ccc(N)cc1)CC3` [Example U-007], with no more than 15 µM.
